Columns and labels:
NZM mice [1] = assay: Antinuclear antibody ELISA (anti-Smith, anti-dsDNA), serum of NZM mice (Example 3)
NZM mice [2] = assay: Serum IL-12 by Luminex, NZM mice (Example 3); format: in vivo, mouse
Description: FIG. 48 depicts serum IL-12 concentration in NZM mice. Mean±SEM values for the concentration of mouse serum IL-12 from treated NZM mice at the end of the study.
For the processing of serum samples for cytokine analysis, frozen plasma at −80° C. is thawed on ice, vortexed, and centrifuged for 10 minutes (10,000×g) to remove debris and aggregates. A total of 25-50 μL of serum is used for Luminex assays following the manufacturer's instructions. Ten different mouse cytokines are measured using the mouse cytokine 20-plex bead kit (Invitrogen, Carlsbad, Calif., no. LMC0006). Briefly, filter plates (Millipore, Billerica, Mass., no. MAIPSWU10), are pre-wet with 200 μL of wash solution (kit component) and 25 μL of beads are added per well. Serum samples are diluted and a total volume of 50 μL is added per well (ie, 25 μL of sample serum plus 25 μL of assay diluent as provided by the manufacturer). Plates with beads are incubated for 2 hours at room temperature (RT) on an orbital shaker in the dark. At the end of the incubation, plate(s) are washed twice in kit buffer, secondary biotinylated antibody is added at a 1:10 dilution (100 μL) in biotin diluent provided with the kit. Plates are incubated at RT for 1 hour in the dark then washed twice in kit buffer. Strepavidin in assay diluent is added at 100 μL per well, then incubated for 30 minutes at RT in the dark. The plates are washed 3 times then 100 μL of kit wash solution is added and agitated for 2-3 minutes at RT in the dark. Plates are run immediately following this incubation period on a Luminex xMAP 200 unit with data acquisition and analysis software (Invitrogen, San Diego, Calif., no. MAP0200). All bead washing is performed using a vacuum manifold unit (Pall, Ann Arbor, Mich. no. 5017). For all cytokine Luminex assays, values below the limit of detection set by the lowest point along the standard or set by the manufacturer are considered out of range and are not estimated, but assumed the lowest point along the standard curve for that particular assay.

NZM mice [3] = assay: Spleen CD38/CD138+ plasma cells by flow cytometry, NZM mice (Example 3)
20S proteasome = 20S proteasome activity in spleen (ex vivo fluorogenic assay), NZM mice (Example 2)
NZM mice [4] = assay: Serum C3 complement ELISA, NZM mice (Example 2)
MRL/lpr mice = assay: Renal histopathology scoring (kidney IC-GN), MRL/lpr mice; format: in vivo, mouse
Description: (§1) For histological analyses, the left kidney from each animal is removed and fixed in 10% buffered neutral 10% formalin (EMD) for 48 hours on an orbital rocker at 25° C., then washed overnight with running dH2O and stored in 70% ethanol at 4° C. until ready to be processed. Kidney stains used for histological analyses included hematoxylin and eosin (H&E), Periodic Acid Schiff (PAS) and Trichrome stains (Wistar Institute, Philadelphia, Pa.). All 3 stained sections are used by the pathologist for scoring purposes. All histological scoring is performed blinded and by an independent board certified veterinary medical pathologist (Julie Engiles, VMD, DACVP). Multiple stains are used to determine score values. Images in FIG. 17 show worst affected area of section selected blindly by the pathologist.
Kidney IC-GN Scoring Method (Smith, Dong et al. 2007):
1. Glomerular cellularity—Score 1-5: Null, low, moderate, high, severe
2. Glomerular necrosis—Score 1-5: Null, low, moderate, high, severe
3. Glomerulosclerosis—Score 1-5: Null, low, moderate, high, severe
4. Interstitial infiltration—Score 1-5: Null, low, moderate, high, severe
5. Tubular atrophy—Score 1-5: Null, low, moderate, high, severe
6. Interstitial fibrosis—Score 1-5: Null, low, moderate, high, severe
7. Vasculitis—Score 1-5: Null, low, moderate, high, severe
Specific Pathologist Definitions: • Necrosis is defined by the presence of nuclear debris/pyknosis within the glomerular tuft indicative of “necrosis.” In many samples, this is a very mild, rare finding within only a very few segments of the glomerular tuft. Also consider effacement of the glomerular tuft by PAS positive, Trichrome negative material necrosis. • Glomerular sclerosis is defined by increased fibroplasia or fibrosis within the glomerular tuft or capsule. […] Most of the vascular changes are mild and could be considered “arteriosclerosis” characterized by proliferation of the smooth muscle cells, and hyalinization of the extracellular matrix. This change may reflect hypertension secondary to glomerular pathology. In very few animals is there overt “vasculitis.” Most inflammatory changes are within the walls of the blood vessels, with little to no damage to the endothelium, and no overt hemorrhage/fibrin leakage. Many also have perivascular rims of fibroblasts.

NZM mice [5] = assay: Renal histopathology blinded scores, NZM mice (Example 3); format: in vivo, mouse
Description: FIG. 52 depicts renal histopathology scores from NZM mice (H&E stained paraffin wax embedded kidney tissues sections from 25 week old mice).
as §1, with “neutral” for “neutral 10%”, “39” for “17”
Kidney IC-GN Scoring Method (Smith, Dong et al. 2007): […]

In the case of `CC(C)C[C@H](NC(=O)[C@H](Cc1ccccc1)NC(=O)c1cnccn1)B(O)O` [bortezomib, reference compound], the “serum anti-dsDNA ANA decrease vs vehicle” value (NZM mice [1]; Group 7, ip) is reported as 25.8%, the “serum anti-smith ANA decrease vs vehicle” value (NZM mice [1]; Group 7, ip) is reported as 66.7% and the “serum anti-dsDNA ANA decrease vs vehicle” value (NZM mice [1]; Group 8, sc) is reported as 55.4%. The “serum anti-smith ANA decrease vs vehicle” value (NZM mice [1]; Group 8, sc) was 85.7%, the “serum IL-12 decrease vs vehicle” value (NZM mice [2]; Group 7, ip) was 65.8% and the “serum IL-12 decrease vs vehicle” value (NZM mice [2]; Group 8, sc) was 75.6%. The “spleen CD138/CD38 double positive plasma B cells decrease vs vehicle” value (NZM mice [3]; Group 7, ip) was 35.4%, the “spleen CD138/CD38 double positive plasma B cells decrease vs vehicle” value (NZM mice [3]; Group 8, sc) was 57.8% and the “PD 20S proteasome activity, percent change vs vehicle” value (20S proteasome; G3 0.3 mg/kg ip, 1× wk) was −14%. For the same molecule, the “PD 20S proteasome activity, percent change vs vehicle” value (20S proteasome; G4 0.3 mg/kg ip, 2× wk) was −27%, the “Serum C3 complement AUC, percent change vs vehicle” value (NZM mice [4]; G3 0.3 mg/kg ip, 1× wk) was 8% and the “Serum C3 complement AUC, percent change vs vehicle” value (NZM mice [4]; G4 0.3 mg/kg ip, 2× wk) was −11%. For the same molecule, the “EOS glomerular cellularity, percent change vs vehicle” value (MRL/lpr mice; G4: 0.5 mg/kg iv, 1× wk) was −31%, the “EOS glomerular necrosis, percent change vs vehicle” value (MRL/lpr mice; G4: 0.5 mg/kg iv, 1× wk) was −28% and the “EOS glomerulosclerosis, percent change vs vehicle” value (MRL/lpr mice; G4: 0.5 mg/kg iv, 1× wk) was −42%. For the same molecule, the “EOS interstitial infiltration, percent change vs vehicle” value (MRL/lpr mice; G4: 0.5 mg/kg iv, 1× wk) was −47%, the “EOS vasculitis, percent change vs vehicle” value (MRL/lpr mice; G4: 0.5 mg/kg iv, 1× wk) was −42% and the “Kidney EOS interstitial fibrosis, percent change vs vehicle” value (MRL/lpr mice; G4: 0.5 mg/kg iv, 1× wk) was −46%. For the same molecule, the “Kidney EOS tubular atrophy, percent change vs vehicle” value (MRL/lpr mice; G4: 0.5 mg/kg iv, 1× wk) was −50%, the “EOS glomerular cellularity, percent change vs vehicle” value (MRL/lpr mice; G5: 0.3 mg/kg iv, 2× wk) was −15% and the “EOS glomerular necrosis, percent change vs vehicle” value (MRL/lpr mice; G5: 0.3 mg/kg iv, 2× wk) was −25%. The “EOS glomerulosclerosis, percent change vs vehicle” value (MRL/lpr mice; G5: 0.3 mg/kg iv, 2× wk) was −18%, the “EOS interstitial infiltration, percent change vs vehicle” value (MRL/lpr mice; G5: 0.3 mg/kg iv, 2× wk) was −39% and the “EOS vasculitis, percent change vs vehicle” value (MRL/lpr mice; G5: 0.3 mg/kg iv, 2× wk) was −21%. For the same molecule, the “Kidney EOS interstitial fibrosis, percent change vs vehicle” value (MRL/lpr mice; G5: 0.3 mg/kg iv, 2× wk) was −27%, the “Kidney EOS tubular atrophy, percent change vs vehicle” value (MRL/lpr mice; G5: 0.3 mg/kg iv, 2× wk) was −27% and the “maximum reduction of renal interstitial infiltration vs vehicle” value (MRL/lpr mice; bortezomib groups) was 47%. The “decrease in average renal pathology score vs vehicle” value (MRL/lpr mice; treated weekly with bortezomib) was 1.68 fold, the “combined average renal histopathology blinded score decrease vs vehicle” value (NZM mice [5]; Group 7, ip) was 19.4% and the “combined average renal histopathology blinded score decrease vs vehicle” value (NZM mice [5]; Group 8, sc) was 43.6%.

In the case of `C[C@@H]1C[C@H]2[C@@H]3CCC4=CC(=O)C=C[C@]4(C)[C@@]3(F)[C@@H](O)C[C@]2(C)[C@@]1(O)C(=O)CO` [dexamethasone, Dexamethasone, reference compound], the “Serum C3 complement AUC, percent change vs vehicle” value (NZM mice [4]; G5 1.5 mg/kg ip, 3× wk) is reported as 45%, the “p, serum C3 complement levels vs G6 Bortezomib 0.3 mg/kg 2× wk ip” value (NZM mice [4]; G8 1.5 mg/kg 3× wk ip) is reported as “p < 0.05” and the “p, serum C3 complement levels vs G7 CTX 50 mg/kg 1× wk ip” value (NZM mice [4]; G8 1.5 mg/kg 3× wk ip) is reported as “p < 0.01”. The “EOS glomerular cellularity, percent change vs vehicle” value (MRL/lpr mice; G6: 1.5 mg/kg ip, 3× wk) was −15%, the “EOS glomerular necrosis, percent change vs vehicle” value (MRL/lpr mice; G6: 1.5 mg/kg ip, 3× wk) was −25% and the “EOS glomerulosclerosis, percent change vs vehicle” value (MRL/lpr mice; G6: 1.5 mg/kg ip, 3× wk) was −27%. For the same molecule, the “EOS interstitial infiltration, percent change vs vehicle” value (MRL/lpr mice; G6: 1.5 mg/kg ip, 3× wk) was −50%, the “EOS vasculitis, percent change vs vehicle” value (MRL/lpr mice; G6: 1.5 mg/kg ip, 3× wk) was −18% and the “Kidney EOS interstitial fibrosis, percent change vs vehicle” value (MRL/lpr mice; G6: 1.5 mg/kg ip, 3× wk) was −27%. For the same molecule, the “Kidney EOS tubular atrophy, percent change vs vehicle” value (MRL/lpr mice; G6: 1.5 mg/kg ip, 3× wk) was −23%.

Reference: patent US9340559B2, “Proteasome inhibitor delanzomib for use in the treatment of lupus” (Cephalon, Inc., priority 2011, dated 2016)
